From patent US20240108614A1, “Methods of Treating Diabetic Cardiomyopathy by Inhibiting GLUT1” (University of Cincinnati, priority 2022, published 2024)

Key:
Type in all cases: in vivo
type 1 diabetic mice [1] = assay: Type 1 diabetes mouse model, treatment started after cardiac dysfunction was confirmed (6 weeks) until the twelfth week
Method: (§1) To evaluate the impact of GLUT1 and myocardial glucose content changes on cardiac function and structure, 2D echocardiography was performed to measure EF, FS, end-diastolic and end-systolic volumes (EDV, ESV), stroke volume (SV), and cardiac output (CO) using M-mode short axis images, automatic tracing, myocardial strain and strain rate with speckle tracking. From the pulsed wave Doppler spectral waveforms, the peak early and late diastolic transmitral velocities (E, A waves) were measured to obtain the E/A ratio.
In another mouse cohort, treatment with either STF-31 or dapa started after cardiac dysfunction was confirmed (6 weeks of type 1 diabetes) and continued until the twelfth week. This treatment corrected both systolic (FIG. 4D) and diastolic (FIG. 4E) dysfunction. Importantly, treatment with either STF-31 or dapa prevented upregulation of KLF5. Thus, inhibition of GLUT1 appears as a novel therapeutic target for diabetic cardiomyopathy that prevents activation of the cardiotoxic FOXO1-KLF5 axis.

type 1 diabetic mice [2] = assay: Type 1 diabetes mouse model, treatment over twelve weeks (prevention), 2D echocardiography
Method: To explore whether GLUT1 inhibition holds therapeutic potential against diabetic cardiomyopathy, diabetic mice were treated with a GLUT1 inhibitor (STF-31). Specifically, type 1 diabetes was induced in WT mice and mice were monitored for twelve weeks.
as §1
One group of mice was treated with STF-31 for the entire twelve-weeks period.
Prior to this disclosure, treatment of diabetic patients with SGLT2 inhibitors (dapa or empagliflozin), has shown the most robust cardioprotective effects. Treatment of diabetic mice with dapa corrected hyperglycemia (FIG. 4A) and prevented systolic (FIG. 4B) and diastolic heart failure (FIG. 4C) in both early and late type 1 diabetes.

[3] = tested on: type 2 diabetic mice (HFD); assay: Type 2 diabetes mouse model (high-fat diet 32 weeks, then 8 weeks of treatment); details: HFD type 2 diabetes mice
Text: Similar results were shown in mouse models of type 2 diabetes, wherein mice were fed a high-fat diet (HFD) for 32 weeks prior to initiating 8 weeks of treatment with SFT-31.

[4] = treatment from 6 weeks of type 1 diabetes until twelfth week, after confirmed cardiac dysfunction

## CC(C)(C)c1ccc(S(=O)(=O)NCc2ccc(C(=O)Nc3cccnc3)cc2)cc1 [STF-31]
Type 1 diabetic mice [1]; [4]
  diastolic dysfunction: corrected
  systolic dysfunction: corrected
Type 1 diabetic mice [1]; type 1 diabetic mice
  upregulation of KLF5: prevented
Type 1 diabetic mice [2]
  diastolic dysfunction (mitral valve E/A ratio): did not develop
  plasma glucose levels (hyperglycemia): persistent hyperglycemia
  systolic dysfunction: did not develop
[3]
  KLF5 upregulation: prevented
  diastolic dysfunction: did not develop
  hyperglycemia: persistent hyperglycemia
  systolic dysfunction: did not develop
